Results published in patent publication US12264158B2, “Protein kinase MKK4 inhibitors for promoting liver regeneration or reducing or preventing hepatocyte death” (HEPAREGENIX GMBH, priority 2018, dated 2025).

How the values were obtained:
MEKK2 = biological target: T1, MEKK2 (Homo sapiens, UniProt Q9Y2U5); test: Radiometric protein kinase assay, MEKK2; assay type: biochemical; settings: substrate Casein, ATP 0.2 μM; read-out: MEKK2, potency derived from IC50-values
T1 construct: purchased ProQinase #0583-0000-1
T1 sequence (Q9Y2U5 1-619): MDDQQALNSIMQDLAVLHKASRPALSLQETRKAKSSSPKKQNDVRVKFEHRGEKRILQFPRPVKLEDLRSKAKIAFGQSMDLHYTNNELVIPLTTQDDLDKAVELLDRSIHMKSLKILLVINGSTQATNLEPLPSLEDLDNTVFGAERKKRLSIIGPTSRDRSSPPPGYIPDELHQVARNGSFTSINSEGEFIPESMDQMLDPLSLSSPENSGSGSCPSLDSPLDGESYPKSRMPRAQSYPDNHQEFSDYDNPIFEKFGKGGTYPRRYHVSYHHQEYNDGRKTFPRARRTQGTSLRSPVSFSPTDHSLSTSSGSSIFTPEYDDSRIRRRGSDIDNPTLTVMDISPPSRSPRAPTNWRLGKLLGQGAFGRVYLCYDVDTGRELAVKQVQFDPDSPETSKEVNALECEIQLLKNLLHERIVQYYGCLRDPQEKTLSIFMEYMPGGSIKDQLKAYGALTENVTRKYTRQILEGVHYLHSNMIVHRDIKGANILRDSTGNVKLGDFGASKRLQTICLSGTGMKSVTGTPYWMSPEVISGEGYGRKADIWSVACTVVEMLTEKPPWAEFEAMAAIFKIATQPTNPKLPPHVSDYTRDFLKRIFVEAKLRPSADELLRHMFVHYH
Protocol: (§1) A radiometric protein kinase assay was used for measuring the kinase activity of the respective protein kinases. All kinase assays were performed in 96-well polypropylene plates. After the reactions were stopped, the assay mixtures were transferred to 96-well MSFC filter-plates (Millipore). The reaction mix was passed through the filter membrane by aspiration, the membrane was washed 3 times with 150 mM H3PO4, once with ethanol, dried and liquid scintillation cocktail was added. Radioactivity was determined by counting of the samples in a Microbeta multiwell scintillation counter (Wallac).

BRaf = BRaf (Homo sapiens, UniProt P15056); test: KINOMEscan competition binding assay, selectivity against off-target BRaf; settings: concentration of 100 nM
Method in brief: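 Competition binding: test compound competes with an immobilized ligand for DNA-tagged BRaf, and kinase captured on the ligand is quantified by qPCR of the DNA tag. Compounds from 10 mM stocks were tested at the indicated final concentrations.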

MKK4 active = biological target: T2, MKK4 active (Homo sapiens, UniProt P45985); test: Radiometric protein kinase assay, MKK4 active; assay type: biochemical; settings: substrate JNK1 KRKR, ATP 0.2 μM, read-out: MKK4, potency derived from IC50-values
T2 construct: purchased ProQinase #0948-0000-1
T2 sequence (P45985 1-399): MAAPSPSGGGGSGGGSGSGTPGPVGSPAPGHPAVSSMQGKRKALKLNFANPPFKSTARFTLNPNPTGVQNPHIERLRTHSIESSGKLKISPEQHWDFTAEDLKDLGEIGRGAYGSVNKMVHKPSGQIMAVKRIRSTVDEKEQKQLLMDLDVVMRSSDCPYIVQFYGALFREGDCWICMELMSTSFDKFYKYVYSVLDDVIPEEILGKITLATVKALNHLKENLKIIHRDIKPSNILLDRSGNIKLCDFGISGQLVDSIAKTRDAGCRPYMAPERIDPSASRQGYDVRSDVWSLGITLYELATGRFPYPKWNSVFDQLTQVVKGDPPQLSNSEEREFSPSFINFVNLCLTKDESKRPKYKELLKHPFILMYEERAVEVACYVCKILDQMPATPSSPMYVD
Protocol: as §1

MKK4-MEKK2 mix = biological target: T3, MKK4-MEKK2 mix (Homo sapiens, UniProt P45985); test: Radiometric protein kinase assay, MEKK2 dependent MKK4 activation (cascade); assay type: biochemical; settings: substrate JNK1 KRKR, ATP 0.2 μM, read-out: Cascade, potency derived from IC50-values
T3 construct: MEKK2, recombinant, active: ProQinase product #0583-0000-1
T3 sequence (P45985 2-399): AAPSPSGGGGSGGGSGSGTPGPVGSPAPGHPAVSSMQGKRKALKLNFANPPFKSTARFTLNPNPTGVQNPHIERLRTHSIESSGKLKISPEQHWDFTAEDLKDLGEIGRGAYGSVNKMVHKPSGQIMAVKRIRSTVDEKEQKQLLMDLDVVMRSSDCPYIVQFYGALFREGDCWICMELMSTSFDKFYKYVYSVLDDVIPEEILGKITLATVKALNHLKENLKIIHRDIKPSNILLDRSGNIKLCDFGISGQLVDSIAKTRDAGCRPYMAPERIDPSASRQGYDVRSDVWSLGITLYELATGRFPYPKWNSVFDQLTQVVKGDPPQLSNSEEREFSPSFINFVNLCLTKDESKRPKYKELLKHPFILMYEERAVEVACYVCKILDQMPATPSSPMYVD
Protocol: The activation step is done in 50 mM HEPES pH 7.5, 50 mM NaCl, 3.8 mM MgCl2, 2.5 mM DTT, 10% (v/v) glycerol. Final DMSO concentration is 1%. The activation mixture is pipetted in the following order • 2.5 μl compound in 4% DMSO • 2.5 μl ATP/MgCl2 mix • 5 μl premixed kinase solution MKK4:MEKK2 10:1 (w/w)
Protein concentrations in the activation mix are 1 μM MKK4 and 50 nM MEKK2.
as §1

MKK7 = biological target: T4, MKK7 (Homo sapiens, UniProt O14733); test: KINOMEscan competition binding assay, selectivity against off-target MKK7; settings: concentration of 100 nM
T4 construct: M1/R419; host or cells: HEK-293
T4 sequence (O14733 1-419): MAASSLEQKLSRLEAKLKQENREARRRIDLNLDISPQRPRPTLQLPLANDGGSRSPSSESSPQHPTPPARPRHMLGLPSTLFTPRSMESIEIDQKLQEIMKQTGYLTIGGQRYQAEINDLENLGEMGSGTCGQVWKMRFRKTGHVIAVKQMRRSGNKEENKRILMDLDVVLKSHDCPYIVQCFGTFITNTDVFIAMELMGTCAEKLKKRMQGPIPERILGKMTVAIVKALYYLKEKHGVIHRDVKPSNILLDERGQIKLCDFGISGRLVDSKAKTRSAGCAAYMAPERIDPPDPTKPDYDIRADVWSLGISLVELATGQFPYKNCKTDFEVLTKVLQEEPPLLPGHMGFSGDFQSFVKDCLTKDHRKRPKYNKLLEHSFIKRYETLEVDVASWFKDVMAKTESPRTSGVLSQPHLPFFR
Method in brief: (§2)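 DNA-tagged kinases expressed in HEK-293 cells compete between test compound and immobilized ligand on blocked beads. Bound kinase is eluted and quantified by qPCR of the DNA tag. Compounds were tested at the indicated final concentrations, prepared from 10 mM stocks.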

JNK1 = biological target: T5, JNK1 (Homo sapiens, UniProt P45983); test: KINOMEscan competition binding assay, selectivity against off-target JNK1; settings: concentration of 100 nM
T5 construct: M1/Q384; host or cells: HEK-293
Method in brief: as §2

MKK4 = biological target: T6, MKK4 (Homo sapiens, UniProt P45985); test: KINOMEscan competition binding assay, MKK4 potency; settings: concentration of 100 nM
T6 construct: S84/D399; host or cells: HEK-293
T6 sequence (P45985 84-399): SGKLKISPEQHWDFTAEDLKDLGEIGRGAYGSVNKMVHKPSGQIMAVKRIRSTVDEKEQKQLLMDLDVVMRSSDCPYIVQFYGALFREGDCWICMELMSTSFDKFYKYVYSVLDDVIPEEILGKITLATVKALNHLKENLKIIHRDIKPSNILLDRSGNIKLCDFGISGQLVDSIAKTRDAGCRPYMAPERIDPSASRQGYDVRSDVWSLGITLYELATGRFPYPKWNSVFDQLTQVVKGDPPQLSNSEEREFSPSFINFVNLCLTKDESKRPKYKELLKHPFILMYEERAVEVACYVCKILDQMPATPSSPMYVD
Method in brief: as §2

T5 sequence (P45983 1-384 isoform P45983-2): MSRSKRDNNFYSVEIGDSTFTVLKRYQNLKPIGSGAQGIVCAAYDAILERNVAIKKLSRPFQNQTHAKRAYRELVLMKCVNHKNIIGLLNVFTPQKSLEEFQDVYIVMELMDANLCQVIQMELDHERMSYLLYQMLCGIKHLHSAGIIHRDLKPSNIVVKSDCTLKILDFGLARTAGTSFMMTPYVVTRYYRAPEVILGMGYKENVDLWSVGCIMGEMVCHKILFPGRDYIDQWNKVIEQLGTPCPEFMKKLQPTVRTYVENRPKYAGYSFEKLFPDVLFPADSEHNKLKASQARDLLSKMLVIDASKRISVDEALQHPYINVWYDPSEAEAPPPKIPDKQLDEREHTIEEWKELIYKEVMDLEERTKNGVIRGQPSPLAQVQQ
BRaf, sequence (P15056 whole entry): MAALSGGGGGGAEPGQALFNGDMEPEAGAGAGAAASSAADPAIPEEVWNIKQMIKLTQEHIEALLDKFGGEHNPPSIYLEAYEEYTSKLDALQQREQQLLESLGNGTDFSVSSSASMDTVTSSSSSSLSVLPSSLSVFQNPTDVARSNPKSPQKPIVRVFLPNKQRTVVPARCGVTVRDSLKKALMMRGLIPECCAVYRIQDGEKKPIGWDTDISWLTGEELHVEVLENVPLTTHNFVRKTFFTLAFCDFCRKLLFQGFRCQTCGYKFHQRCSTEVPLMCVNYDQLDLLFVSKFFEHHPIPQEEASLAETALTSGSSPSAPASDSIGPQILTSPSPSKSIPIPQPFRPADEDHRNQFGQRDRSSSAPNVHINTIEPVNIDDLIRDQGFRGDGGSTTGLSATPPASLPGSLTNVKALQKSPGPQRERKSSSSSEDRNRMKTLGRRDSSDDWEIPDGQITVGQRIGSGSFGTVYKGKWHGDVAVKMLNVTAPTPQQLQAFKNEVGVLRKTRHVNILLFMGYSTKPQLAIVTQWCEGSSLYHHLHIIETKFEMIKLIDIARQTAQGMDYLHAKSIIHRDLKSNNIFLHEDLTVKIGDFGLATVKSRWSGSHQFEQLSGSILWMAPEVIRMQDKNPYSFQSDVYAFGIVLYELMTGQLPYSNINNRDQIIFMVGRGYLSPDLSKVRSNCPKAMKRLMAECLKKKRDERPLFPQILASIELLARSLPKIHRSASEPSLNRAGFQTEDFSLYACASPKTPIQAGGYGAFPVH

| SMILES | IC50 (MEKK2) | Selectivity vs. BRaf, ratio PoC(BRaf)/PoC(MKK4) (BRaf) | IC50 (MKK4 active) | IC50 (MKK4-MEKK2 mix) | Selectivity vs. MKK7, ratio PoC(MKK7)/PoC(MKK4) (MKK7) | Selectivity vs. JNK1, ratio PoC(JNK1)/PoC(MKK4) (JNK1) | MKK4, residual percent of control binding (PoC) (MKK4) |
| --- | --- | --- | --- | --- | --- | --- | --- |
| CCCS(=O)(=O)Nc1ccc(F)c(C(=O)c2n[nH]c3ncc(-c4ccccc4OC)cc23)c1F [Example 14, N-(2,4-difluoro-3-(5-(2-methoxyphenyl)-1H-pyrazo-lo[3,4-b]pyridine-3-carbonyl)-phenyl)propane-1-sulfon-amide] | > 10000 nM | +++ (PoC(BRaf)/PoC(MKK4) ≥ 30) | 500 to 1000 nM | 1000 to 10000 nM | +++ (PoC(MKK7)/PoC(MKK4) ≥ 30) | ++ (30 > PoC(JNK1)/PoC(MKK4) ≥ 10) | ++ (1 ≤ PoC < 10) |
| CCCS(=O)(=O)Nc1ccc(F)c(C(=O)c2n[nH]c3ncc(-c4ccc(S(N)(=O)=O)cc4)cc23)c1F [Example 15, 4-(3-(2,6-difluoro-3-(propyl-sulfonamido)benzoyl)-1H-pyrazolo[3,4-b]pyridin-5-yl)benzene-sulfonamide] | 1000 to 10000 nM | + (10 > PoC(BRaf)/PoC(MKK4) ≥ 3) | < 500 nM | 1000 to 10000 nM | +++ (PoC(MKK7)/PoC(MKK4) ≥ 30) | +++ (PoC(JNK1)/PoC(MKK4) ≥ 30) | +++ (PoC < 1) |
| CCCS(=O)(=O)Nc1ccc(F)c(C(=O)c2n[nH]c3ncc(-c4ccc(S(N)(=O)=O)cc4F)cc23)c1F [Example 51m, 4-(3-(2,6-difluoro-3-(propylsulfonamido)benzoyl)-1H-pyrazolo[3,4-b]pyridin-5-yl)-3-fluorobenzenesulfonamide] | 1000 to 10000 nM |  | < 500 nM | 1000 to 10000 nM |  |  |  |

Continued, values first:

| IC50 (MEKK2) | Selectivity vs. BRaf, ratio PoC(BRaf)/PoC(MKK4) (BRaf) | IC50 (MKK4 active) | IC50 (MKK4-MEKK2 mix) | Selectivity vs. MKK7, ratio PoC(MKK7)/PoC(MKK4) (MKK7) | Selectivity vs. JNK1, ratio PoC(JNK1)/PoC(MKK4) (JNK1) | MKK4, residual percent of control binding (PoC) (MKK4) | SMILES |
| --- | --- | --- | --- | --- | --- | --- | --- |
| > 10000 nM | + (10 > PoC(BRaf)/PoC(MKK4) ≥ 3) | 1000 to 10000 nM | 1000 to 10000 nM | ++ (30 > PoC(MKK7)/PoC(MKK4) ≥ 10) | ++ (30 > PoC(JNK1)/PoC(MKK4) ≥ 10) | ++ (1 ≤ PoC < 10) | CCCS(=O)(=O)Nc1ccc(F)c(C(=O)c2n[nH]c3ncc(-c4cccc(OC)c4)cc23)c1F [Example 17, N-(2,4-difluoro-3-(5-(3-methoxyphenyl)-1H-pyrazo-lo[3,4-b]pyridine-3-carbonyl)-phenyl)propane-1-sulfon-amide] |
| < 500 nM |  | < 500 nM | < 500 nM |  |  |  | CCCS(=O)(=O)Nc1c(F)ccc(C(=O)c2n[nH]c3ncc(-c4ccc(S(N)(=O)=O)cc4)cc23)c1F [Example 67, 4-(3-(2,4-difluoro-3-(propylsulfon-amido)benzoyl)-1H-pyrazolo[3,4-b]pyridin-5-yl)benzenesulfonamide] |
